Laboratory results taken from article PMC4704863 (Angewandte Chemie (International ed. in English), 2014).
Ends that are not written are not given here. Peptide text beside a SMILES is read from it. * marks the point of attachment. Palmitoyl = CCCCCCCCCCCCCCCC(=O)*

What was measured:
hY4R [1] = molecular target: T1, hY4R (Homo sapiens, UniProt P50391); assay: Arr3–receptor interaction by BRET; format: cell-based; settings: arr3 association after 10 min
Col-24 epithelial layers = assay: Antisecretory responses; format: cell-based, human
hY4R [2] = molecular target: T1, hY4R; format: cell-based; settings: Col-24 epithelial layers, response to 10 nM hPP after prestimulation
[3] = molecular target: human neuropeptide Y receptor Y4 (hY4R) (human) (UniProt P50391); assay: radioligand binding
[4] = molecular target: human neuropeptide Y receptor Y4 (hY4R) (human, UniProt P50391 1-375); assay: radioligand binding
[5] = Col-24 epithelial layers, 100 nM peptide

T1 sequence (P50391 whole entry): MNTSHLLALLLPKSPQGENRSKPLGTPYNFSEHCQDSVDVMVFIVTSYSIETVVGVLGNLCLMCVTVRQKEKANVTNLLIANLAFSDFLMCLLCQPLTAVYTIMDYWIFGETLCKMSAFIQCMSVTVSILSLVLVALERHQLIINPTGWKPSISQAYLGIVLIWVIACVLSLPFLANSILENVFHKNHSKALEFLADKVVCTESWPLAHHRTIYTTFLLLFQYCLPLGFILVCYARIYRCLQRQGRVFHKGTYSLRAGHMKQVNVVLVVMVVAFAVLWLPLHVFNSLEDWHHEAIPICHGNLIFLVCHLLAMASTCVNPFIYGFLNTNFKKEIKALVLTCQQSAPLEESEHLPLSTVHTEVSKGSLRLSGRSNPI
human neuropeptide Y receptor Y4 (hY4R) (human), sequence (P50391 whole entry): as above
human neuropeptide Y receptor Y4 (hY4R), sequence (P50391 whole entry): as above

IC50 [3] [nM]	Molecule	arr3 recruitment, maximal netBRET (BRETmax) (hY4R [1])	Isc response, time course (Col-24 epithelial layers; [5])	Desensitization of hY4R after prestimulation (hY4R [2])	also measured
	CCCCCCCCCCCCCCCC(=O)NCCCC[C@H](NC(=O)[C@H](C)NC(=O)[C@H](Cc1ccc(O)cc1)NC(=O)[C@H](CCC(N)=O)NC(=O)[C@H](C)NC(=O)[C@H](CCSC)NC(=O)[C@H](CCC(N)=O)NC(=O)[C@H](CCC(=O)O)NC(=O)[C@@H]1CCCN1C(=O)[C@@H](NC(=O)[C@H](C)NC(=O)[C@H](CC(N)=O)NC(=O)[C@H](CC(=O)O)NC(=O)CNC(=O)[C@@H]1CCCN1C(=O)[C@H](Cc1ccc(O)cc1)NC(=O)[C@@H](NC(=O)[C@@H]1CCCN1C(=O)[C@H](CCC(=O)O)NC(=O)[C@H](CC(C)C)NC(=O)[C@@H]1CCCN1C(=O)[C@H](C)N)C(C)C)[C@@H](C)O)C(=O)N[C@@H](CC(=O)O)C(=O)N[C@@H](CC(C)C)C(=O)N[C@@H](CCCNC(=N)N)C(=O)N[C@@H](CCCNC(=N)N)C(=O)N[C@@H](Cc1ccc(O)cc1)C(=O)N[C@H](C(=O)N[C@@H](CC(N)=O)C(=O)N[C@@H](CCSC)C(=O)N[C@@H](CC(C)C)C(=O)N[C@H](C(=O)N[C@@H](CCCNC(=N)N)C(=O)N[C@@H](CCC(N)=O)C(=O)N[C@@H](CCCNC(=N)N)C(=O)N[C@@H](Cc1ccc(O)cc1)C(N)=O)[C@@H](C)O)[C@@H](C)CC [3A] (H-APLEPVYPGDNATPEQMAQYAK(Palmitoyl)DLRRYINMLTRQRY-NH2; N-terminus and C-terminus assumed)	increased arr3 recruitment	prolonged reductions in Isc	concentration-dependent desensitization	Concentration–response in Col-24 cells (potency and efficacy) (Col-24 epithelial layers; Col-24 cells, Isc): good activity and increased efficacy; Onset of Isc response (Col-24 epithelial layers; [5]): delayed; Maximum of Isc response (Col-24 epithelial layers; Col-24 epithelial layers, 100 nM peptide, compared with 2A): higher maximum than the parental peptide
	APLEPVYPGDNATPEQMAQYAKDLRRYINMLTRQRY-NH2 [2A]	robust arr3 recruitment	rapid and transient activity	concentration-dependent desensitization	Time of maximum Isc effect (Col-24 epithelial layers; [5]): about 5 min
36.8	PEG5-modified [K^22,Q^34]hPP (4A) (peptide)				
94.2	PEG22-modified [K^22,Q^34]hPP (5A) (peptide)				
1.2	palmitoylated [K^22,Q^34]hPP (3A) (peptide)				
	APLEPVYPGDNATPEQMAQYAKDLRRYINMLTRQRY (ends and bridges not checked) [lead peptide 2A ([Q^34]hPP core sequence, Obinepitide)]				IC50 [4]: 0.5 nM
